Results reported in publication PMC8016998, “Identification of potential therapeutic antimicrobial peptides against Acinetobacter baumannii in a mouse model of pneumonia” (Scientific Reports, 2021).
Like-named read-outs stand apart in the source and are kept apart here. No end group written: not given here.

Columns and labels:
[1] = tested on: MDRAB clinical strain W11; format: cell-based, Acinetobacter baumannii
[2] = tested on: MDRAB clinical strain AO80; format: cell-based, Acinetobacter baumannii
Method: (§2) MBC were determined by extending the MIC procedure in sterilized 96-well polypropylene microtiter plates according to the broth microdilution guidelines of the Clinical and Laboratory Standards Institute with some modification[47]. […] In addition, 10 µL was drawn from each well with no visible turbidity onto LB agar plates and incubated for 24 h at 37 °C. The lowest concentration showing no visible growth on agar subculture was used as the MBC value. All experiments were performed in triplicate.

[3] = tested on: MDRAB clinical strain AE6; format: cell-based, Acinetobacter baumannii
Method: as §2

[4] = tested on: MDRAB clinical strain J49; format: cell-based, Acinetobacter baumannii
[5] = tested on: MDRAB clinical strain AF11; format: cell-based, Acinetobacter baumannii
Method: as §2

[6] = tested on: MDRAB clinical strain AK61; format: cell-based, Acinetobacter baumannii
[7] = tested on: MDRAB clinical strain L87; format: cell-based, Acinetobacter baumannii
Method: as §2

[8] = tested on: MDRAB clinical strain AS40; format: cell-based, Acinetobacter baumannii
Method: as §2

[9] = tested on: MDRAB clinical strain U80; format: cell-based, Acinetobacter baumannii
[10] = tested on: MDRAB clinical strain AF93; format: cell-based, Acinetobacter baumannii
Method: as §2

[11] = tested on: MDRAB clinical strain AF12; format: cell-based, Acinetobacter baumannii
MDRAB clinical strain K2 = format: cell-based, Acinetobacter baumannii
Method: as §2

MDRAB clinical strains = format: cell-based, Acinetobacter baumannii; conditions: range over MDRAB clinical strains (details in Supplementary Table 2); subculture on LB agar, 24 h 37 °C
[12] = tested on: MDRAB clinical strain U95; format: cell-based, Acinetobacter baumannii
[13] = tested on: MDRAB clinical strain AZ93; format: cell-based, Acinetobacter baumannii
[14] = tested on: MDRAB clinical strain O59; format: cell-based, Acinetobacter baumannii
[15] = tested on: MDRAB clinical strain D29; format: cell-based, Acinetobacter baumannii
Method: as §2

[16] = tested on: MDRAB clinical strain AG51; format: cell-based, Acinetobacter baumannii
Method: as §2

[17] = tested on: MDRAB clinical strain AE5; format: cell-based, Acinetobacter baumannii
[18] = tested on: MDRAB clinical strain AN10; format: cell-based, Acinetobacter baumannii
[19] = tested on: Acinetobacter baumannii 17,978; format: cell-based;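 further: CLSI broth microdilution in 96-well polypropylene plates, MBC taken as lowest concentration giving no growth when clear wells were subcultured on LB agar for 24 h at 37 °C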
[20] = tested on: MDRAB clinical strain AL87; format: cell-based, Acinetobacter baumannii
Method: as §2

[21] = tested on: MDRAB clinical strain Y92; format: cell-based, Acinetobacter baumannii
[22] = tested on: MDRAB clinical strain AK29; format: cell-based, Acinetobacter baumannii
Method: as §2

[23] = tested on: Acinetobacter baumannii 19,606; format: cell-based; conditions: 19,606, 24 h
Method: as §2

MDRAB strain BF50 = format: cell-based, Acinetobacter baumannii; conditions: 24 h
Method: (§1) All AMPs and TP4 derivatives used in this study were synthesized by Kelowna International Scientific Inc. (Taipei City, Taiwan) with more than 95% purity, and their molecular weights were verified by mass spectrum analysis. MBC were determined by extending the MIC procedure in sterilized 96-well polypropylene microtiter plates according to the broth microdilution guidelines of the Clinical and Laboratory Standards Institute with some modification. Briefly, 5 × 10^5 CFU/mL of bacteria were inoculated in LB medium containing AMPs or antibiotic at final concentrations ranging from 512 to 1 μg/mL (from serial twofold dilutions). After incubation for 24 h at 37 °C, the lowest concentration showing no visible growth was used as the MIC value. In addition, 10 µL was drawn from each well with no visible turbidity onto LB agar plates and incubated for 24 h at 37 °C. The lowest concentration showing no visible growth on agar subculture was used as the MBC value. All experiments were performed in triplicate.

MDRAB strain MO91 = format: cell-based, Acinetobacter baumannii; conditions: 24 h
Method: as §1

## GLGSVFGRLARILGRVIPKV-NH2 [Pilosulin]
[1]; strain W11, broth microdilution, LB, 24 h 37 °C
  MIC: 16 µg/mL
[1]; strain W11, subculture on LB agar, 24 h 37 °C
  MBC: 16 µg/mL
[2]; strain AO80, broth microdilution, LB, 24 h 37 °C
  MIC: 16 µg/mL
[2]; strain AO80, subculture on LB agar, 24 h 37 °C
  MBC: 32 µg/mL
[3]; strain AE6, broth microdilution, LB, 24 h 37 °C
  MIC: 16 µg/mL
[3]; strain AE6, subculture on LB agar, 24 h 37 °C
  MBC: 16 µg/mL
[4]; strain J49, broth microdilution, LB, 24 h 37 °C
  MIC: 16 µg/mL
[4]; strain J49, subculture on LB agar, 24 h 37 °C
  MBC: 16 µg/mL
[5]; strain AF11, broth microdilution, LB, 24 h 37 °C
  MIC: 8 µg/mL
[5]; strain AF11, subculture on LB agar, 24 h 37 °C
  MBC: 16 µg/mL
[6]; strain AK61, broth microdilution, LB, 24 h 37 °C
  MIC: 16 µg/mL
[6]; strain AK61, subculture on LB agar, 24 h 37 °C
  MBC: 16 µg/mL
[7]; strain L87, broth microdilution, LB, 24 h 37 °C
  MIC: 16 µg/mL
[7]; strain L87, subculture on LB agar, 24 h 37 °C
  MBC: 16 µg/mL
[8]; strain AS40, broth microdilution, LB, 24 h 37 °C
  MIC: 16 µg/mL
[8]; strain AS40, subculture on LB agar, 24 h 37 °C
  MBC: 16 µg/mL
[9]; strain U80, broth microdilution, LB, 24 h 37 °C
  MIC: 16 µg/mL
[9]; strain U80, subculture on LB agar, 24 h 37 °C
  MBC: 16 µg/mL
[10]; strain AF93, broth microdilution, LB, 24 h 37 °C
  MIC: 8 µg/mL
[10]; strain AF93, subculture on LB agar, 24 h 37 °C
  MBC: 8 µg/mL
[11]; strain AF12, broth microdilution, LB, 24 h 37 °C
  MIC: 8 µg/mL
[11]; strain AF12, subculture on LB agar, 24 h 37 °C
  MBC: 16 µg/mL
MDRAB clinical strain K2; strain K2, broth microdilution, LB, 24 h 37 °C
  MIC: 16 µg/mL
MDRAB clinical strain K2; strain K2, subculture on LB agar, 24 h 37 °C
  MBC: 32 µg/mL
MDRAB clinical strains
  MBC: 8 to 32 µg/mL
[12]; strain U95, broth microdilution, LB, 24 h 37 °C
  MIC: 32 µg/mL
[12]; strain U95, subculture on LB agar, 24 h 37 °C
  MBC: 32 µg/mL
[13]; strain AZ93, broth microdilution, LB, 24 h 37 °C
  MIC: 16 µg/mL
[13]; strain AZ93, subculture on LB agar, 24 h 37 °C
  MBC: 16 µg/mL
[14]; strain O59, broth microdilution, LB, 24 h 37 °C
  MIC: 16 µg/mL
[14]; strain O59, subculture on LB agar, 24 h 37 °C
  MBC: 16 µg/mL
[15]; strain D29, broth microdilution, LB, 24 h 37 °C
  MIC: 16 µg/mL
[15]; strain D29, subculture on LB agar, 24 h 37 °C
  MBC: 32 µg/mL
[16]; strain AG51, broth microdilution, LB, 24 h 37 °C
  MIC: 8 µg/mL
[16]; strain AG51, subculture on LB agar, 24 h 37 °C
  MBC: 16 µg/mL
[17]; strain AE5, broth microdilution, LB, 24 h 37 °C
  MIC: 8 µg/mL
[17]; strain AE5, subculture on LB agar, 24 h 37 °C
  MBC: 16 µg/mL
[18]; strain AN10, broth microdilution, LB, 24 h 37 °C
  MIC: 8 µg/mL
[18]; strain AN10, subculture on LB agar, 24 h 37 °C
  MBC: 8 µg/mL
[19]; 10 µL from wells without turbidity onto LB agar, 24 h at 37 °C, triplicate
  MBC: 32 µg/mL
[20]; strain AL87, broth microdilution, LB, 24 h 37 °C
  MIC: 8 µg/mL
[20]; strain AL87, subculture on LB agar, 24 h 37 °C
  MBC: 8 µg/mL
[21]; strain Y92, broth microdilution, LB, 24 h 37 °C
  MIC: 8 µg/mL
[21]; strain Y92, subculture on LB agar, 24 h 37 °C
  MBC: 8 µg/mL
[22]; strain AK29, broth microdilution, LB, 24 h 37 °C
  MIC: 16 µg/mL
[22]; strain AK29, subculture on LB agar, 24 h 37 °C
  MBC: 16 µg/mL

## FIHHIIGGLFSAGKAIHRLIRRRRR [TP4]
[1]; 24 h
  MBC: 16 µg/mL
  MIC: 16 µg/mL
[2]; 24 h
  MBC: 32 µg/mL
  MIC: 32 µg/mL
[3]; 24 h
  MBC: 16 µg/mL
  MIC: 16 µg/mL
[4]; 24 h
  MBC: 16 µg/mL
  MIC: 16 µg/mL
[5]; 24 h
  MBC: 16 µg/mL
  MIC: 16 µg/mL
[6]; 24 h
  MBC: 32 µg/mL
  MIC: 32 µg/mL
[7]; 24 h
  MBC: 32 µg/mL
  MIC: 32 µg/mL
[8]; 24 h
  MBC: 32 µg/mL
  MIC: 32 µg/mL
[9]; 24 h
  MBC: 32 µg/mL
  MIC: 32 µg/mL
[10]; 24 h
  MBC: 16 µg/mL
  MIC: 16 µg/mL
[11]; 24 h
  MBC: 16 µg/mL
  MIC: 16 µg/mL
MDRAB clinical strain K2; 24 h
  MBC: 32 µg/mL
  MIC: 16 µg/mL
[12]; 24 h
  MBC: 64 µg/mL
  MIC: 32 µg/mL
[13]; 24 h
  MBC: 16 µg/mL
  MIC: 16 µg/mL
[14]; 24 h
  MBC: 32 µg/mL
  MIC: 32 µg/mL
[15]; 24 h
  MBC: 32 µg/mL
  MIC: 32 µg/mL
[16]; 24 h
  MBC: 16 µg/mL
  MIC: 8 µg/mL
[17]; 24 h
  MBC: 32 µg/mL
  MIC: 16 µg/mL
[18]; 24 h
  MBC: 8 µg/mL
  MIC: 8 µg/mL
[23]
  MBC: 16 µg/mL
  MIC: 16 µg/mL
MDRAB strain BF50
  MBC: 16 µg/mL
  MIC: 16 µg/mL
MDRAB strain MO91
  MBC: 32 µg/mL
  MIC: 16 µg/mL
[19]; 17,978, 24 h
  MBC: 16 µg/mL
  MIC: 16 µg/mL
[20]; 24 h
  MBC: 16 µg/mL
  MIC: 16 µg/mL
[21]; 24 h
  MBC: 16 µg/mL
  MIC: 16 µg/mL
[22]; 24 h
  MBC: 16 µg/mL
  MIC: 16 µg/mL
